Values joined by “and” are separate entries in the source; they are usually repeats but may differ in a detail not shown here. Equal values may be shown once.
Key:
osteopontin = experiment: Western blot of osteopontin expression after exposure to ASOs; assay type: cell-based, human; conditions: MDA-MB231, lipofectamine, 10 μM
osteonectin = experiment: Western blot of osteonectin expression after exposure to ASOs; assay type: cell-based, human; conditions: single exposure, lipofectamine, 10 μM
[1] = tested on: MDA-MB-231 breast cancer cells; experiment: Clonogenicity assay (colony formation); assay type: cell-based, human; conditions: 20 μM
Protocol: For determining the response of MDA-MB-231 colony formation to exposure with antisense oligonucleotides and erucylphospho-NNN-trimethylpropanolamine (ErPC3) the following procedure was used. MDA-MB-231 cells were treated for various periods of time (see below), harvested and counted. Cells (5000) were then transferred into semi-solid medium containing 0.8t RPMI-methylcellulose and 30% FBS. Cells were plated onto 3.5 cm Petri-dishes (1 ml/dish) (NUNC, Wiesbaden, Germany) and usual cell culture conditions (37° C., 5% CO2 in humidified air) were applied. Colony formation (clusters of 30 or more cells) was visualized by staining with 3-[4,5-dimethylthiazol-2-yl]-2,5-diphenyltetrazolium-bromide (MTT; Serva, Heidelberg, Germany) and the resulting dark blue colonies were scored by an inverted microscope after 5-7 days. At least three dishes per treatment protocol were used.
Pending on the duration of treatment, 1×10^5-3×10^5 cells were transferred onto 6 well plates (Nunc, Wiesbaden, Germany) and grown for 24 h. For transfection, ASO stock solutions were prepared in medium without FBS. According to the protocol of the manufacturer, the respective ASO stock solution was mixed with lipofectamine to allow ASO-liposome complexes to form. To 200 μl medium containing ASO quantities resulting in 10 μM (Western blot and in vivo model) and in 5, 10, or 20 μM (clonogenicity assay) final ASO-concentrations, an equal volume of medium without FBS was added containing 5, 10, or 20 μl lipofectamine, respectively. In addition to the ASO treatment, a NSO control (20 μM final concentration with 20 μl lipofectamine) and a lipofectamine control (20 μl) were used. […] After 12 h the medium was changed, and cells were further grown for 48-72 h. In the case of a sequential combination treatment this first cycle was repeated with the respective combination partner.
The alkylphosphocholine ErPC3 was synthesized and provided by Prof. H. Eibl (MPI of Biophysical Chemistry, Göttingen, FRG). For treating MDA-MB-231 cells, ErPC3 which was kept as stock solution in ethanol and PBS (10 mM; ratio of diluents 1:1; V:V), was diluted in PBS resulting in final concentrations of 10, 14, and 20 μM. The medium containing ErPC3 was changed after 24 h in all experiments and the cells were further grown for 48-72 h without ErPC3 (for details of sequential exposure see below).
Sequential combination treatment consisted of two or three treatment cycles. The two cycle treatment started either with the ASO and was followed by ErPC3 or was performed with the reverse sequence. The three cycle treatment started either with two cycles of ASO followed by ErPC3 or an initial exposure to ErPC3 was followed by two cycles with an ASO.
Colony counts are presented as mean with corresponding standard deviation. For comparison of incidences between treatment groups the x^2 test was used and for comparison of the lesion sizes the Kruskal-Wallis test was applied. P values≦0.05 were considered significant. Predicted theoretical values of combinations were calculated according to the equation: C=a×b/100, where a and b are colony counts in percent of untreated control obtained in response to single agents. For each concentration applied theoretical values were calculated and compared with the real value of the combination. In addition, isobologram and multiple drug effect analysis was examined by a suitable program (CalcuSyn, Biosoft, Ferguson, USA) to study the nature of the interaction observed. For this purpose, the dose-effect curve for each drug alone was determined based on the experimental observations using the median-effect principle; the combination index (CI) for each combination was then calculated according to the following equation:
CI=(D)1/(Dx)1+(D)2/(Dx)2+(D1)×(D2)/(Dx)1×(Dx)2
where (D)1 and (D)2 are the doses of drug 1 and drug 2 that have x effect when used in combination and (Dx)1 and (Dx)2 are the doses of drug 1 and drug 2 that have the same x effect when used alone. […]

MDA-MB-231^GFP cells [2] = experiment: In vivo model with pretreated MDA-MB-231^GFP cells (osteolytic bone metastasis); parameters: species or system nude rats; lesion size of the rat(s) that developed lytic metastasis, % of control / lesion sizes with respect to all animals of the group compared to untreated control / lesion size of individual animal compared to the untreated control / T/C % (mean lesion size compared to untreated control): concentration or dose not given beside the values; conditions: for T/C × 100: mean lesion size vs untreated control rats; for Incidence of metastasis: cells pretreated in vitro (10 μM);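 as to Mean size of lesion: mean lesion size in relative units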
bone sialoprotein II = experiment: Western blot of bone sialoprotein II expression after exposure to ASOs; assay type: cell-based, human; conditions: 10 μM
MDA-MB-231^GFP cells [3] = experiment: In vivo treatment with mini-osmotic pumps (osteolytic bone metastasis model);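 as to Mean size of lesion: mean lesion size in relative units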;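 as to Size of lesion (per animal): lesion size in relative units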; parameters: species or system nude rats; conditions: for X-ray scan of hind legs: lytic lesions (in words): FIG. 5-7; for T/C × 100: mean lesion size vs NSO control rats; for Mean size of lesion / Size of lesion (per animal): mini-osmotic pumps; for Incidence of metastasis: mini-osmotic pumps s.c., 7 mg/kg daily over four weeks

## 5′-GCGAGGGAGTTCTTCTTCTA-3′ (GCGAGGGAGTTCTTCTTCTA; phosphorothioate backbone, further chemistry not given here) [NSO, reference compound]
osteopontin; single exposure
  osteopontin expression in relation to untreated control (100%): 99.5%
osteopontin; twofold exposure
  osteopontin expression in relation to untreated control (100%): 99%
osteonectin; MDA-MB231
  osteonectin expression in relation to untreated control (100%): 94%
osteonectin; MDA-MB231^F (growing without FBS)
  osteonectin expression in relation to untreated control (100%): 80%
osteonectin; MDA-MB435s
  osteonectin expression in relation to untreated control (100%): 97%
[1]; Exp. III a
  % Control: 94%
[1]; Exp. III a, control 456
  Mean colony no.: 430
[1]; Experiment II, single treatment
  % Control: 96%
[1]; Experiment II, single treatment, control 705
  Mean colony no.: 676
[1]; Experiment III b
  % Control: 97%
[1]; Experiment III b, control 517
  Mean colony no.: 504
MDA-MB-231^GFP cells [2]; 4 weeks
  T/C × 100: 78
MDA-MB-231^GFP cells [2]; 6 weeks
  T/C × 100: 95
MDA-MB-231^GFP cells [2]; 8 weeks
  T/C × 100: 140
MDA-MB-231^GFP cells [2]; FIG. 3 and FIG. 4, one rat each, cells pre-exposed
  X-ray scan of hind legs: osteolytic lesions (in words): large osteolytic lesions in the femur, tibia and fibula
MDA-MB-231^GFP cells [2]; observation period 4 weeks
  Incidence of metastasis: 2/2
MDA-MB-231^GFP cells [2]; observation period 4 weeks, pretreated cells
  Mean size of lesion: 173 R.U.
MDA-MB-231^GFP cells [2]; observation period 6 weeks
  Incidence of metastasis: 2/2
MDA-MB-231^GFP cells [2]; observation period 6 weeks, pretreated cells
  Mean size of lesion: 287 R.U.
MDA-MB-231^GFP cells [2]; observation period 8 weeks
  Incidence of metastasis: 2/2
MDA-MB-231^GFP cells [2]; observation period 8 weeks, pretreated cells
  Mean size of lesion: 485 R.U.
MDA-MB-231^GFP cells [2]; pretreated cells, after eight weeks
  T/C % (mean lesion size compared to untreated control): 140%
MDA-MB-231^GFP cells [2]; pretreated cells, after four weeks
  average lesion sizes compared to untreated control: about 78%
MDA-MB-231^GFP cells [2]; pretreated cells, over observation period week 4 to week 8
  lesion sizes with respect to all animals of the group compared to untreated control: 104%
Bone sialoprotein II; MDA-MB231, single exposure, electroporation
  bone sialoprotein II expression in relation to untreated control (100%): 99%
Bone sialoprotein II; MDA-MB231, single exposure, lipofectamine
  bone sialoprotein II expression in relation to untreated control (100%): 100%
Bone sialoprotein II; MDA-MB231, twofold exposure, lipofectamine
  bone sialoprotein II expression in relation to untreated control (100%): 97%
Bone sialoprotein II; MDA-MB231^F (growing without FBS), single exposure, lipofectamine
  bone sialoprotein II expression in relation to untreated control (100%): 100%
Bone sialoprotein II; MDA-MB435s, single exposure, lipofectamine
  bone sialoprotein II expression in relation to untreated control (100%): 65%
MDA-MB-231^GFP cells [3]; eight weeks after tumor cell implantation
  X-ray scan of hind legs: lytic lesions (in words): clear increase of lytic lesions in the tibia and fibula
MDA-MB-231^GFP cells [3]; four weeks after tumor cell implantation, therapy from implantation
  X-ray scan of hind legs: lytic lesions (in words): small lytic lesions in the tibia
MDA-MB-231^GFP cells [3]; six weeks after tumor cell implantation
  X-ray scan of hind legs: lytic lesions (in words): visible lytic lesions in the tibia and fibula
MDA-MB-231^GFP cells [3]; ten weeks after tumor cell implantation
  X-ray scan of hind legs: lytic lesions (in words): lytic metastases with clear deterioration are visible in all regions of the right hind leg
MDA-MB-231^GFP cells [3]; week 4
  T/C × 100: 100
  Mean size of lesion: 33 R.U.
  Size of lesion (per animal): 45 R.U. and 8 R.U. and 46 R.U.
  Incidence of metastasis: 3/3
MDA-MB-231^GFP cells [3]; week 6
  T/C × 100: 100
  Mean size of lesion: 177 R.U.
  Size of lesion (per animal): 307 R.U. and 29 R.U. and 194 R.U.
  Incidence of metastasis: 3/3
MDA-MB-231^GFP cells [3]; week 8
  T/C × 100: 100
  Mean size of lesion: 273 R.U.
  Size of lesion (per animal): 403 R.U. and 99 R.U. and 318 R.U.
  Incidence of metastasis: 3/3
MDA-MB-231^GFP cells [3]; week 9
  T/C × 100: 100
  Mean size of lesion: 379 R.U.
  Size of lesion (per animal): 453 R.U. and 278 R.U. and 406 R.U.
  Incidence of metastasis: 3/3
MDA-MB-231^GFP cells [3]; week 10
  T/C × 100: 100
  Mean size of lesion: 429 R.U.
  Size of lesion (per animal): 512 R.U. and 313 R.U. and 461 R.U.
  Incidence of metastasis: 3/3
MDA-MB-231^GFP cells [3]; week 12
  T/C × 100: 100
  Mean size of lesion: 434 R.U.
  Size of lesion (per animal): 534 R.U. and 316 R.U. and 453 R.U.
  Incidence of metastasis: 3/3

From US20090017103A1, “Antisense oligonucleotides for prevention of metastasis formation of cancer cells” (priority 2003, published 2009)
